According to patent publication US4440771A, “2-Acetyl quinoline thiosemicarbazones useful in treatment of gonorrhea, malaria or bacterial infections” (The United States of America as represented by the …, priority 1982, dated 1984):
Converted amounts (≈) assume the structure as drawn. Like-named read-outs stand apart in the source and are kept apart here.

Assays:
[1] = test system: Mycobacterium smegmatis strains; assay: Minimum inhibitory concentration, Mycobacterium smegmatis strains (Test 4); type: cell-based; details: Mycolicibacterium smegmatis
Procedure: Compounds were tested against three strains of Mycobacterium smegmatis. The test procedure used was as mentioned by N. E. Morrison [Int. J. of Leprosy 39:34-43 (1971)]. The strain numbers refer to Mycobacterium smegmatis ATCC 607 (I), a DDS-resistant daughter strain (II), and a Rifampin-resistant daughter strain (III), respectively.

[2] = test system: Neisseria meningitidis isolates; assay: Minimum inhibitory concentration, macro broth dilution, Neisseria meningitidis isolates (Test 2); type: cell-based; details: 24 h
Procedure: Compounds were tested against five isolates of Neisseria meningitidis. […] The test procedure used was the macro broth dilutuon method in duplicate outlined by J. C. Sherris on pages 414-415. The test compounds and controls were prepared as in Test 1. Ampicillin and penicillin standards were initially diluted as described by J. C. Sherris on pages 411-412 followed by dilution with Mueller-Hinton broth.

[3] = test system: Staphylococcus aureus isolates; assay: Minimum inhibitory concentration, macro broth dilution, Staphylococcus aureus isolates (Test 1); type: cell-based; details: for MIC: Staphylococcus aureus, 24 h, read-out: Minimum Inhibitory Concentration
Procedure: Compounds were tested against five isolates of Staphylococcus aureus. The bacteria used were isolated from patients at the Walter Reed Army Medical Center, Washington, D.C. […] Each compound was dissolved in Dimethyl Sulfoxide (DMSO) (12.8 mg/ml) and then diluted with Mueller-Hinton broth to obtain the desired dilutions. Tubes containing the hightest quantities of DMSO with no compound present were run as controls.

[4] = test system: Neisseria gonorrhoeae isolates; assay: Minimum inhibitory concentration, agar dilution, Neisseria gonorrhoeae isolates (Test 3); details: 24 h, read-out: Minimum Inhibitory Concentration
Procedure: Compounds were tested against 35 Neisseria gonorrhoeae isolates. The bacteria used were provided by the Department of Bacterial Diseases of the Walter Reed Amry Institute of Research. The test procedure used was the agar dilution method in duplicate as outlined by J. S. Sherris on pages 411-412. GC Medium (Difco) with a 2% defined supplement added as described by D. S. Kellogg et al [J. Bact. […] The compounds were dissolved in DMSO (1.0 mg/ml), diluted with GC broth (GC Medium without agar) to the appropriate concentration, and added to the GC Medium at 55°-56° C. The latter was then poured and allowed to solidify. A penicillin standard was also prepared with initial dilutions as described by J. C. Sherris followed by dilutions with GC broth and addition to the GC Medium at 55°-56° C. The inoculum was 1:200 CG broth dilution of a suspension of colony isolates after the suspension was adjusted visually to the turbidity standard described by J. M. Matsen and A. L. Barr on page 422 in "Manual of Clinical Microbiology," 2nd Ed., E. Lennette, E. H. Spaulding, and J. P. Truant, Ed. […] The plates were inoculated with a replicator and incubated at 37° C. under 5-10% carbon dioxide.

[5] = test system: Plasmodium berghei KBG 173; assay: In vivo antimalarial activity against Plasmodium berghei in mice (Test 5); set-up: key: C: Mice surviving 60 days are considered cured; active: Activity is defined as a 100% increase in the mean survival time of the treated mice compared to the control group; details: C (n/5) = cured of five
Procedure: Compounds were tested against Plasmodium berghei KBG 173 malaria in mice following the procedure described by T. S. Osdene, P. B. Russell, and L. Rane [J. Med. Chem. 10:431-434 (1967)]. Five mice were tested at each dosage level. Mice surviving 60 days are considered cured. Toxicity is defined as a decrease in the mean survival time of the treated mice as compared to the control group. Activity is defined as a 100% increase in the mean survival time of the treated mice compared to the control group.

[6] = 24 h, DDS-resistant daughter strain (II)
[7] = ATCC607, 24 h, Mycobacterium smegmatis ATCC 607 (I)
[8] = 24 h, Rifampin-resistant daughter strain (III)
[9] = Neisseria meningitidis isolate 7957, read-out: Minimum Inhibitory Concentration
[10] = Neisseria meningitidis isolate 7990, read-out: Minimum Inhibitory Concentration
[11] = Neisseria meningitidis isolate 8005, read-out: Minimum Inhibitory Concentration
[12] = Neisseria meningitidis isolate 8006, read-out: Minimum Inhibitory Concentration
[13] = Neisseria meningitidis isolate 8011, read-out: Minimum Inhibitory Concentration
[14] = Staphylococcus aureus isolate IV, 24 hours
[15] = Staphylococcus aureus isolate V, 24 hours
[16] = Staphylococcus aureus isolate II, 24 hours
[17] = Staphylococcus aureus isolate III, 24 hours
[18] = read-out: Minimum Inhibitory Concentration, Neisseria meningitidis isolate 7957
[19] = read-out: Minimum Inhibitory Concentration, Neisseria meningitidis isolate 7990
[20] = read-out: Minimum Inhibitory Concentration, Neisseria meningitidis isolate 8006
[21] = read-out: Minimum Inhibitory Concentration, Neisseria meningitidis isolate 8011

Structure (SMILES): Nc1ccc(S(=O)(=O)c2ccc(N)cc2)cc1 [DDS, reference compound]
- MIC [1, 6]: 400 µg/mL (≈ 1610 µM)
- MIC [1, 7]: 2 µg/mL (≈ 8.05 µM)

Structure (SMILES): CCCNC(=S)NN=C(C)c1ccc2ccccc2n1 [Compound 3J, I-Propylaminothiocarboxylic acid 2-[1-(2-quinolyl)ethylidene]hydrazide]
- MIC [1, 6]: 4 µg/mL (≈ 14 µM)
- MIC [1, 8]: 2 µg/mL (≈ 6.98 µM)
- MIC [1, 7]: 1 µg/mL (≈ 3.49 µM)

Structure (SMILES): CC(=NNC(=S)N1CCCC1)c1ccc2ccccc2n1 [Compound 3I, Pyrrolidine-1-thiocarboxylic acid 2-[1-(2-quinolyl)ethylidene]hydrazide]
- MIC [2, 9]: 0.062 µg/mL (≈ 0.208 µM)
- MIC [2, 10]: 0.125 µg/mL (≈ 0.419 µM)
- MIC [2, 11]: 0.125 µg/mL (≈ 0.419 µM)
- MIC [2, 12]: 0.125 µg/mL (≈ 0.419 µM)
- MIC [2, 13]: 0.125 µg/mL (≈ 0.419 µM)
- MIC ([3]; Staphylococcus aureus isolate I, 24 hours): ≤ 0.25 µg/mL
- MIC [3, 14]: ≤ 0.25 µg/mL
- MIC [3, 15]: ≤ 0.25 µg/mL
- MIC [1, 6]: 3 µg/mL (≈ 10.1 µM)
- MIC [1, 8]: 1.5 µg/mL (≈ 5.03 µM)
- MIC [1, 7]: 0.6 µg/mL (≈ 2.01 µM)
- MIC [4]: 0.125 to 0.25 µg/mL (≈ 0.419 to 0.838 µM)

Structure (SMILES): CC(=NNC(=S)N1CCN(c2ccccn2)CC1)c1ccc2ccccc2n1 [Compound 3H]
- MIC [2, 9]: > 1 µg/mL
- MIC [2, 10]: > 1 µg/mL
- MIC [2, 11]: > 1 µg/mL
- MIC [2, 12]: > 1 µg/mL
- MIC [2, 13]: > 1 µg/mL
- Minimum Inhibitory Concentration [3, 15]: 16 µg/mL
- MIC [3, 16]: 16 µg/mL (≈ 41 µM)
- MIC [3, 17]: 16 µg/mL (≈ 41 µM)
- MIC [3, 14]: 16 µg/mL (≈ 41 µM)
- MIC [1, 6]: 10 µg/mL (≈ 25.6 µM)
- MIC [1, 8]: 5 µg/mL (≈ 12.8 µM)
- MIC [1, 7]: 2.5 µg/mL (≈ 6.4 µM)
- MIC [4]: 0.125 to 0.5 µg/mL (≈ 0.32 to 1.28 µM)

Structure (SMILES): CC(=NNC(=S)N(CC(C)C)CC(C)C)c1ccc2ccccc2n1 [Compound 3K, Diisobutylaminothiocarboxylic acid 2-[1-(2-quinolyl)ethylidene]hydrazide]
- MIC [2, 9]: 0.125 µg/mL (≈ 0.351 µM)
- MIC [2, 10]: 0.5 µg/mL (≈ 1.4 µM)
- MIC [2, 11]: 0.5 µg/mL (≈ 1.4 µM)
- MIC [2, 12]: 1 µg/mL (≈ 2.8 µM)
- MIC [2, 13]: 0.5 µg/mL (≈ 1.4 µM)
- Minimum Inhibitory Concentration [3, 15]: 16 µg/mL
- MIC [3, 16]: 16 µg/mL (≈ 44.9 µM)
- MIC [3, 17]: 16 µg/mL (≈ 44.9 µM)
- MIC [3, 14]: 16 µg/mL (≈ 44.9 µM)
- In vivo Antimalarial Activity ([5]; 320 mg/kg): active
- In vivo Antimalarial Activity ([5]; 640 mg/kg): active
- MIC [1, 6]: > 50 µg/mL
- MIC [1, 8]: > 50 µg/mL
- MIC [1, 7]: 10 µg/mL (≈ 28 µM)
- MIC [4]: > 1 µg/mL

Structure (SMILES): CC(=NNC(=S)N1CCCCCC1)c1ccc2ccccc2n1 [Compound 3F, 1-Azacycloheptane-1-thiocarboxylic Acid 2-[1-(2-quinolyl)ethylidene]-hydrazide]
- MIC [2, 9]: < 0.062 µg/mL
- MIC [2, 10]: 0.125 µg/mL (≈ 0.383 µM)
- MIC [2, 11]: 0.25 µg/mL (≈ 0.766 µM)
- MIC [2, 12]: 0.25 µg/mL (≈ 0.766 µM)
- MIC [2, 13]: 0.25 µg/mL (≈ 0.766 µM)
- Minimum Inhibitory Concentration [3, 15]: 16 µg/mL
- MIC [3, 16]: 16 µg/mL (≈ 49 µM)
- MIC [3, 17]: 16 µg/mL (≈ 49 µM)
- MIC [3, 14]: 16 µg/mL (≈ 49 µM)
- MIC [1, 6]: 15 µg/mL (≈ 45.9 µM)
- MIC [1, 8]: 10 µg/mL (≈ 30.6 µM)
- MIC [1, 7]: 2.5 µg/mL (≈ 7.66 µM)
- MIC [4]: 0.25 to 0.5 µg/mL (≈ 0.766 to 1.53 µM)

Structure (SMILES): CC(=NNC(=S)N1CC2CCC(CC2)C1)c1ccc2ccccc2n1 [Compound 3G, 3-Azabicyclo[3.2.2]none-3-thiocarboxylic acid 2-[1-(2-quinolyl)ethylidene]hydrazide]
- MIC [2, 18]: 0.125 µg/mL (≈ 0.355 µM)
- MIC [2, 19]: 1 µg/mL (≈ 2.84 µM)
- MIC ([2]; read-out: Minimum Inhibitory Concentration, Neisseria meningitidis isolate 8005): 1 µg/mL (≈ 2.84 µM)
- MIC [2, 20]: 0.5 µg/mL (≈ 1.42 µM)
- MIC [2, 21]: 0.5 µg/mL (≈ 1.42 µM)
- Minimum Inhibitory Concentration [3, 16]: 16 µg/mL
- Minimum Inhibitory Concentration [3, 17]: 16 µg/mL
- Minimum Inhibitory Concentration [3, 14]: 16 µg/mL
- Minimum Inhibitory Concentration [3, 15]: 16 µg/mL
- MIC [3]: 16 µg/mL (≈ 45.4 µM)
- In vivo Antimalarial Activity ([5]; 160 mg/kg): active
- MIC [1, 6]: 15 µg/mL (≈ 42.6 µM)
- MIC [1, 8]: 10 µg/mL (≈ 28.4 µM)
- MIC [1, 7]: 4 µg/mL (≈ 11.3 µM)
- MIC [4]: 0.5 to 1 µg/mL (≈ 1.42 to 2.84 µM)

Structure (SMILES): CC1(C)S[C@@H]2[C@H](NC(=O)[C@H](N)c3ccccc3)C(=O)N2[C@H]1C(=O)O [Ampicillin, reference compound]
- MIC [2, 9]: 0.008 µg/mL (≈ 0.0229 µM)
- MIC [2, 10]: 0.008 µg/mL (≈ 0.0229 µM)
- MIC [2, 11]: 0.008 µg/mL (≈ 0.0229 µM)
- MIC [2, 12]: 0.016 µg/mL (≈ 0.0458 µM)
- MIC [2, 13]: 0.016 µg/mL (≈ 0.0458 µM)

Structure (SMILES): CO[C@H]1/C=C/O[C@@]2(C)Oc3c(C)c(O)c4c(O)c(c(/C=N/N5CCN(C)CC5)c(O)c4c3C2=O)NC(=O)/C(C)=C\C=C\[C@H](C)[C@H](O)[C@@H](C)[C@@H](O)[C@@H](C)[C@H](OC(C)=O)[C@@H]1C [Rifampin, reference compound]
- MIC [1, 8]: 250 µg/mL (≈ 304 µM)
- MIC [1, 7]: 1 µg/mL (≈ 1.22 µM)

Structure (SMILES): CC1(C)S[C@@H]2[C@H](NC(=O)Cc3ccccc3)C(=O)N2[C@H]1C(=O)O [Penicillin, reference compound]
- MIC [2, 18]: 0.031 µg/mL (≈ 0.0927 µM)
- MIC [2, 19]: 0.031 µg/mL (≈ 0.0927 µM)
- MIC [2, 20]: 0.031 µg/mL (≈ 0.0927 µM)
- MIC [2, 21]: 0.031 µg/mL (≈ 0.0927 µM)
- MIC [4]: 0.062 to 16 µg/mL (≈ 0.185 to 47.8 µM)
